From ChEMBL document CHEMBL1134875, “Binding modes of two novel dinucleotide inhibitors of HIV-1 integrase” (Bioorg Med Chem Lett, 2002) come the findings set out here.

In experiment [1] the target is T1, Human immunodeficiency virus type 1 integrase (Human immunodeficiency virus 1, UniProt Q7ZJM1). Put plainly: Compound was tested for the inhibition HIV integrase 3'-processing activity.
The target in experiment [2] is T1, Human immunodeficiency virus type 1 integrase. The experiment can be described thus: Compound was tested for the inhibition HIV integrase strand transfer activity.

T1 sequence (Q7ZJM1 whole entry): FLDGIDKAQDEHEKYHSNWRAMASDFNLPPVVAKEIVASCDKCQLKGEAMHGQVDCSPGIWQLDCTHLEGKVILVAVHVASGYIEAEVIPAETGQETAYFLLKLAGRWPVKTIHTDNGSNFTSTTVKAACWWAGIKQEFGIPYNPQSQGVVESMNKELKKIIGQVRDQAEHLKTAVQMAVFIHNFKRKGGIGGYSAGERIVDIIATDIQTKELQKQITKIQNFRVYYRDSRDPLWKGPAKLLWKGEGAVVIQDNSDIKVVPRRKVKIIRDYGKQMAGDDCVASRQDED

For the molecule `Nc1ccn([C@H]2C[C@@H](O)[C@@H](COP(=O)(O)O[C@@H]3[C@H](COP(=O)(O)O)OC[C@@H]3n3cnc4c(N)ncnc43)O2)c(=O)n1`, the IC50 (usually the concentration at which inhibition is half-maximal) amounted to 19 µM in experiment [1] and 25 µM in experiment [2].
